Holding throughout (format): in vivo
One data set deals with Salmonella-infected mice. As to the kind of experiment: Salmonella-mediated cecal fibrosis in mice. The note with it: Salmonella-infected mice with lentiviral elafin overexpression. As to the method:
Eight-week-old male and female 129Sv/J mice (#000691, Jackson Laboratories) were administered 20 mg streptomycin via oral gavage. Twenty-four hours later, the mice were orally infected with Salmonella typhimurium SL1344 strain 1×10^8 colony-forming units by oral gavage to induce cecal fibrosis.
Origene or miR205-5p-OFF lentivrus (mm35328) or miR205-5p-OE lentivirus (mm15214) from Applied Biological Materials on day 14. Some infected mice received oral antibiotics mixture in drinking water ad libitum from day 14 to day 21 to suppress intestinal microbiota. […]
H&E and Masson Trichrome (MT) staining were performed as described previously. Microphotographs were recorded at multiple locations and scored by two investigators blindly. Intestinal injuries were scored (0-12). The severity of intestinal fibrosis was assessed by MT staining and scored (0-3). […]
Total RNA was isolated by an RNeasy kit (#74104, Qiagen) and reverse transcribed into cDNA by a high-capacity cDNA reverse transcription kit (#4368813, ThermoFisher). […] Relative mRNA/miRNA quantification was performed by comparing test groups and control groups after normalization with endogenous control genes. The fold changes are expressed as 2^ΔΔCt. […]
(§1) Overall disease activity (ODA) was calculated by % change of histology and fibrosis scores and colonic mRNA expression of fibrosis- and inflammation-related genes. […]

The test system of data set [1] is HFD-treated elafin-overexpressing mice. As to the kind of experiment: Intraperitoneal IL-1β and IFNγ injection to HFD-treated elafin-overexpressing mice. The note with it: for effect on elafin-mediated inhibition of fat mass and fasting blood glucose levels / effect on elafin-mediated inhibition of liver steatosis: mouse, in vivo. The text has this:
FIG. 33. Circulating immune cells mediated the anti-obesity effects of elafin in HFD-treated male mice. (A) Circulating immune cell mRNA expression in the HFD-treated mice with and without lentiviral elafin overexpression. (B) Splenocyte transplantation to HFD-treated Rag−/− mice. (C) Physiological parameters of HFD-treated Rag−/− recipient mice after splenocyte transplantation. Transplantation of splenocytes from elafin-overexpressing donors caused reduced fat mass, body weight, and food consumption and increased leptin levels in the Rag−/− recipient mice. (D) Mesenteric fat and epididymal fat tissue mRNA expression in HFD- treated mice with and without lentiviral elafin overexpression. (E) Determination of the physiological effects of intraperitoneal IL-1β and IFNγ injection to HFD-treated elafin-expressing mice. IL-1β or IFNγ was injected on the same day as elafin-expressing lentivirus injection. (F) Daily food consumption, (G) serum leptin levels. (H) Change in body weight. (I) Change in fat mass. (J) Fasting blood glucose levels. Each group consists of 8 mice.
Some groups were injected with IL-1β protein 2.5 μg per mouse (#211-11B Peprotech) or IFNγ protein 5 μg per mouse (#315-05 Peprotech) intraperitoneally to increase circulating IL-1β or IFNγ levels.

The test system of data set [2] is HFD-treated male mice. As to the kind of experiment: Leptin sensitivity test in HFD-treated male mice. The procedure:
FIG. 35. Elafin-dependent serum exosome-mediated inhibition of hyperphagia and hyperglycemia was reversed by miR181b-5p and miR219-5p inhibitors. (A) Serum exosome transplantation to HFD-treated mice. The miRNA inhibitors were injected on the same day as exosome injection. (B) Change in fat mass. (C) No significant change in body weight among all groups over 7 days after miRNA inhibitor and exosome injection. (D) Fasting blood glucose levels 7 days after exosome and miRNA inhibitor injection. (E) Daily food consumption per mouse. (F) Serum leptin levels measured on day seven post-injection. (G, H) Leptin, Cd36, and adiponectin mRNA expression in the mesenteric fat and epididymal fat of HFD-treated mice with exosome and miRNA inhibitor injection. (I) Leptin sensitivity test: The RD/HFD-treated mice were injected with leptin for 3 days after elafin-LV injection. (J, K) Daily food consumption and fasting blood glucose levels at 24 h after the last leptin injection. Each group consists of 8 mice.
Leptin sensitivity tests were performed by injecting 1 μg/kg leptin intraperitoneally (#450-31, Peprotech) daily for 3 days. At the endpoint of the experiments, mice were fasted for 6 h and tested for fasting blood glucose and cholesterol levels with a drop of tail vein blood using Freestyle Lite blood glucose meter and test strips (Abbott Diabetes Care) and Accutrend Plus meter and test strips (Roche), respectively. The oral glucose tolerance test (OGTT) was performed by feeding D-glucose (1 g/kg) to fasted mice via oral gavage, and the blood glucose level was measured 2 h after oral glucose feeding. Blood glucose and cholesterol levels are presented as mg/dL. Measurements of fasting blood glucose levels, blood total cholesterol levels, food consumption, and fat/lean mass (EchoMRl) were performed as described in our previous report.
For inhibition of miRNAs, control (Y100199006), miR-181b-5p (YC10201288-FZA), and miR-219-5p (YC10201241-FZA) inhibitors (Qiagen) were dissolved in PBS. […]

In data set [3] the test system is HFD-treated male mice. As to the kind of experiment: Oral and subcutaneous administration of modified elafin to HFD-treated male mice. The note with it: 14 days. The procedure: FIG. 36. Subcutaneous and oral administration of modified elafin inhibited hyperphagia and hyperglycemia in HFD-treated male mice. (A) Elafin (1 mg/kg) was injected into RD-treated male mice subcutaneously. Tail-vein blood samples were collected for elafin ELISA. This mouse experiment was intended for the determination of basic pharmacokinetics of elafin, but not the determination of physiology of elafin. (B) HFD-treated mice were treated with either oral gavage of Elafin-Eudragit formulation (10 mg/kg) daily or subcutaneous injection of PEG-elafin (3.25 mg/kg) every 48 h for 14 days. Serum elafin levels. (C) Serum leptin levels. (D) Serum IFNγ and IL-1β levels. (E) Daily food consumption. (F) Change in fat mass. (G) Change in body weight over 14 days. (H) Fasting blood glucose levels. Each group consists of 8 mice.
Oral and subcutaneous administration of modified elafin to mice. Eight-week-old male c57BL/6J (JAX #000664) mice were fed with HFD for 8 weeks to induce obesity and hyperglycemia, followed by administration of Elafin-Eudragit formulation (10 mg/kg) via oral gavage daily or subcutaneous injection of polyethylene glycol conjugated (PEGylated) elafin (3.25 mg/kg) every 48 h to mice for 14 days. Oral Elafin-Eudragit formulation was made by Dr. Xingguo Cheng at the Southwest Research Institute (SWRI), Texas. Elafin was coated with Eudragit FS3OD polymer. […] Elafin-Eudragit was packaged into microparticles using an SWRI-patented spinning disk atomization technology. This packaging prevented leakage of elafin in acidic, aqueous solution. The oral elafin-Eudragit formulation was dissolved in mildly acidified (pH 5) water containing 0.5% hydroxypropyl methylcellulose (HPMC). PEGylated elafin was made by conjugation to methoxyl-PEG12 (New England Peptide Company). Control groups received either oral Eudragit-HPMC solution or subcutaneous PEG injection.

Another data set relates to TNBS-treated mice. As to the kind of experiment: TNBS-associated colonic fibrosis in mice. The note with it: TNBS-treated mice. The procedure: Eight-week-old male and female CD-1 mice (#022, Charles River Laboratories) were injected with 50pL TNBS solution (to induce colonic fibrosis) or 30% ethanol (vehicle) via enema weekly for five weeks. After the last TNBS injection, the mice were held for two additional weeks to develop colonic fibrosis. Some of the mice were injected with 5 μg/mouse of either control (PS100001) or elafin-expressing construct (RC203136) from
Origene via InvivoJetPEI transfection reagent (201-10G, Polyplus) intracolonically on the 9th day after the last TNBS injection or five days before the end of experiment.
Some of the mice received either a single intraperitoneal injection of 10 mg/kg anti-tumor necrosis factor-alpha (anti-TNFα) neutralizing antibody (6E0058, BioXCell) or oral antibiotic mixture in drinking water ad libitum from the 9th day after the last TNBS injection to the endpoint of the experiment. The antibiotics mixture contains kanamycin (0.4 mg/mL), gentamicin (0.035 mg/mL), colistin (850 U/mL), metronidazole (0.215 mg/mL), and vancomycin (0.045 mg/mL), which was routinely used by our laboratory for suppressing intestinal microbiota.
For PAR1/2 activation, some of the mice were injected with DMSO (50pL/mouse), 5 mg/kg PAR1 agonist TRAP-6, or 5 mg/kg PAR2 agonist SLIGKV-NH2 via enema on the 9th, 11th, and 13th days after the last TNBS injection.
For miRNA inhibition, some of the mice were injected with 5 mg/kg either control inhibitor or miR205-5p power inhibitor (Qiagen) […] via enema on the 9th, 11th, and 13th days after the last TNBS injection.
For Zeb1 manipulation, some mice received a single intraperitoneal injection (10^7 infectious units/mouse) of control lentivirus (PS100064V), Zeb1-overexpressing lentivirus (MR223095L2V), or Zeb1-shRNA lentivirus (TL513177V) from Origene, Inc. nine days after the last TNBS injection.
Dr. Xingguo Cheng produced the oral elafin-Eudragit-FS3OD formulation via a material transfer agreement (UCLA MTA2019-00000337) with the Southwest Research Institute (SWRI) in Texas. […] The mice were fed with either control-Eudragit or elafin-Eudragit in mildly acidified (pH 5) water containing 0.5% hydroxypropyl methylcellulose (HPMC) daily via oral gavage during the last five days of the experiment.
H&E and Masson Trichrome (MT) staining were performed as described previously. Microphotographs were recorded at multiple locations and scored by two investigators blindly. Intestinal injuries were scored (0-12). The severity of intestinal fibrosis was assessed by MT staining and scored (0-3). ZEB1 immunohistochemistry was performed using an anti-ZEB1 antibody (HPA027524, Sigma).
Total RNA was isolated by an RNeasy kit (#74104, Qiagen) and reverse transcribed into cDNA by a high-capacity cDNA reverse transcription kit (#4368813, ThermoFisher). PCR reactions were run with Taq Universal SYBR Green Supermix (1725120, Bio-Rad) and TaqMan real-time PCR assays (ThermoFisher) in a Bio-Rad CFX384 system. For the determination of miRNA expression, RNA was converted to cDNA using miRCURY LNA RT kit. PCR reactions were run with miRCURY LNA SYBR Green PCR kit and miRCURY LNA PCR assays (Qiagen). Relative mRNA/miRNA quantification was performed by comparing test groups and control groups after normalization with endogenous control genes. The fold changes are expressed as […]. […]
as §1

Where no end group is shown, it is not given here.

Turning to `CC[C@H](C)[C@H](NC(=O)[C@H](CC1CCCCC1)NC(=O)c1ccno1)C(=O)NCc1cccc(C(=O)N2CCC(CN)CC2)c1` [GB110, reference compound], the “effect on elafin-mediated inhibition of cecal fibrosis / collagen deposition and fibrogenic mRNA expression” value in the data set on Salmonella-infected mice is “reversed”.

On to IFNγ: IFNγ protein (Peprotech), for which, in data set [1] (IL-1β 2.5 μg or IFNγ 5 μg per mouse intraperitoneally), the “food consumption in elafin-overexpressing mice” value was “moderately increased”. In addition, in data set [1], the “effect on elafin-mediated inhibition of fat mass and fasting blood glucose levels” value was “reversed”; the “effect on elafin-mediated inhibition of liver steatosis” value was “reversed”. Further, the “effect on elafin-mediated decrease of food consumption and fasting blood glucose levels” value with HFD-treated male mice [2] (mouse, in vivo) is on record as “reversed”.

IL-1β: IL-1β protein (Peprotech): in data set [1], the “effect on elafin-mediated inhibition of fat mass and fasting blood glucose levels” value is “reversed”; the “effect on elafin-mediated inhibition of liver steatosis” value is listed as “reversed”.

Consider “Leptin: leptin (#450-31, Peprotech) injected intraperitoneally”, for which, in the data set with HFD-treated male mice [2] (leptin 1 μg/kg intraperitoneally daily for 3 days), the “food consumption in HFD-treated elafin-overexpressing mice” value is “further reduced”. For the same molecule, the “decrease of fasting blood glucose in HFD-treated elafin-overexpressing mice” value in the data set with HFD-treated male mice [2] (leptin daily for 3 days) is reported as “not affected”.

In the case of “PEG-Elafin: elafin conjugated to methoxyl-PEG12, for subcutaneous injection (AQEPVKGPVSTKPGSCPIILIRCAMLNPPNRCLKDTDCPGIKKCCEGSCGMACFVPQ; ends and bridges not checked; also: conjugated to methoxyl-PEG12, site not given here; UniProt P19957 61-117, looked up)”, in the data set on HFD-treated male mice [3], the “circulating IFNγ levels” value is listed as “significantly reduced”, the circulating leptin levels result is reported as “significantly increased”, the “fasting blood glucose levels” value is given as “significantly reduced” and the fat mass gain result is reported as “significantly reduced”. Further, in the data set with HFD-treated male mice [3], the food consumption entry is “significantly reduced” and the liver steatosis result is “significantly reduced”. Moreover, in the data set on HFD-treated male mice [3] (Elafin-Eudragit 10 mg/kg oral daily, PEG-elafin 3.25 mg/kg s.c. every 48 h), the “serum elafin levels versus lentiviral elafin overexpression” value is given as “comparable”.

For TRAP-6 [PAR1 agonist], in the data set with TNBS-treated mice, the “colonic injury and fibrosis” value is reported as “did not affect”.
